Experimental data as given in PubChem BioAssay AID1259408 (Genetic Toxicology Data Bank (GENE-TOX), 2018).
Activity calls are given as the source filed them. The rule behind the calls is not given here.

System: GENE-TOX genotoxicity assays, various organisms and cells
Experiment: GENE-TOX mutagenicity studies
Conditions: for call: Assay Type: In vivo carcinogenicity studies
[1] = Species/Cell Type: Nonhuman, Assay Type: Sister-chromatid exchange (SCE) in vitro, Assay Code: SC2+, Evaluation Type: Evaluation B (Post-1980)
[2] = Species/Cell Type: Salmonella typhimurium (one or more of the five standard strains: TA98, TA100, TA1535, TA1537, and TA1538), Assay Type: Histidine reverse gene mutation, Ames assay, Assay Code: SALT, Evaluation Type: Evaluation A (Pre-1980)
[3] = Species/Cell Type: Bacillus subtilis (H17 vs M45), Assay Type: Rec-assay, spot test, DNA effects (bacterial DNA repair), Assay Code: REW-, Evaluation Type: Evaluation A (Pre-1980)
[4] = Species/Cell Type: Salmonella typhimurium (one or more of the five standard strains: TA98, TA100, TA1535, TA1537, and TA1538), Assay Type: Histidine reverse gene mutation, Ames assay, Assay Code: SAL+, Evaluation Type: Evaluation A (Pre-1980)
[5] = Species/Cell Type: Escherichia coli polA (W3119 vs P3478), Assay Type: Rec-assay, DNA effects (bacterial DNA repair), Assay Code: RE1+, Evaluation Type: Evaluation A (Pre-1980)
[6] = Species/Cell Type: Nonhuman, Assay Type: Sister-chromatid exchange (SCE) in vivo, Assay Code: SC3+, Evaluation Type: Evaluation B (Post-1980)
[7] = Species/Cell Type: Salmonella typhimurium (one or more of the five standard strains: TA98, TA100, TA1535, TA1537, and TA1538), Assay Type: Histidine reverse gene mutation, Ames assay, Assay Code: SAL+*, Activation: With metabolic activation, Evaluation Type: Evaluation A (Pre-1980)
[8] = Species/Cell Type: Syrian hamster embryo (SHE) cells, Assay Type: Cell transformation, clonal assay, Assay Code: CTC+, Evaluation Type: Evaluation A (Pre-1980)
[9] = Species/Cell Type: Mammalian polychromatic erythrocytes, Assay Type: Micronucleus test, chromosome aberrations, Assay Code: MNTT, Evaluation Type: Evaluation A (Pre-1980)
[10] = Species/Cell Type: Mouse, Sex: Male, Assay Type: Sperm morphology, Assay Code: SPI-, Evaluation Type: Evaluation A (Pre-1980)
[11] = Species/Cell Type: Escherichia coli polA (W3119 vs P3478), Assay Type: Rec-assay, DNA effects (bacterial DNA repair), Assay Code: RE1T, Evaluation Type: Evaluation A (Pre-1980)
[12] = Species/Cell Type: Human, Assay Type: Sister-chromatid exchange (SCE) in vitro, Assay Code: SC1+, Evaluation Type: Evaluation B (Post-1980)
[13] = Species/Cell Type: Nonhuman, Assay Code: CCG-, Evaluation Type: Evaluation A (Pre-1980)
[14] = Species/Cell Type: Saccharomyces cerevisiae, Assay Type: Mitotic recombination or gene conversion, Assay Code: YEH-, Evaluation Type: Evaluation A (Pre-1980)

With `CN(C)CCNc1ccc(NCCN(C)C)c2c1C(=O)c1c(O)ccc(O)c1C2=O` as the compound, how does the mutagenic call [1] read?
The mutagenic call was “active; positive”.

Which mutagenic call [2] does the source give for `COc1cc2c(c3oc4cccc(OC(C)=O)c4c(=O)c13)C1C=COC1O2` (stereo unspecified) here?
Its mutagenic call is “no conclusion”.

`O=C(Nc1cc(Cl)cc(Cl)c1O)c1c(O)c(Cl)cc(Cl)c1Cl` was tested. Which mutagenic call (Species/Cell Type: Mammalian polychromatic erythrocytes, Assay Type: Micronucleus test, chromosome aberrations, Assay Code: MNTT, Evaluation Type: Evaluation B (Post-1980)) did it give?
Its mutagenic call is “no conclusion”.

How did the mutagenic call [3] turn out when `COc1c(C)c2c(c(O)c1C/C=C(\C)CCC(=O)O)C(=O)OC2` was run?
The mutagenic call was “inactive; negative”.

What about the mutagenic call (Species/Cell Type: Nonhuman, Assay Type: Chromosome aberrations in vitro, Assay Code: CY&+, Evaluation Type: Evaluation A (Pre-1980)) of the same compound?
Its mutagenic call is “active; positive”.

What about the mutagenic call [2] of the same compound?
The mutagenic call was “no conclusion”.

How did the mutagenic call (Species/Cell Type: Syrian hamster embryo (SA7/SHE) cells, Assay Type: Cell transformation, viral enhanced, Assay Code: CT7+, Evaluation Type: Evaluation A (Pre-1980)) turn out when `Cl.[Pt]` was run?
Its mutagenic call is “active; positive”.

Which results are given for `NNCCO`?
mutagenic call (Species/Cell Type: Bacillus subtilis (H17 vs M45), Assay Type: Rec-assay, spot test, DNA effects (bacterial DNA repair), Assay Code: REW+, Evaluation Type: Evaluation A (Pre-1980)): active; positive; mutagenic call (Species/Cell Type: Escherichia coli WP2, Assay Type: Tryptophan reverse gene mutation, Assay Code: WP2+, Evaluation Type: Evaluation A (Pre-1980)): active; positive; mutagenic call (Species/Cell Type: Escherichia coli WP2 UVRA, Assay Type: Tryptophan reverse gene mutation, Assay Code: WPU+, Evaluation Type: Evaluation A (Pre-1980)): active; positive; mutagenic call (Species/Cell Type: Nonhuman, Assay Type: Sister-chromatid exchange (SCE) in vitro, Assay Code: SC2+D, Dose Response: With dose response, Evaluation Type: Evaluation B (Post-1980)): active; positive; mutagenic call [4]: active; positive

For `CCOC(=O)Nc1ncc(-c2ccc(Cl)cc2)[nH]1`, which mutagenic call (Species/Cell Type: Salmonella typhimurium, Assay Type: Forward and reverse gene mutation, host-mediated assay, Assay Code: HMAT, Evaluation Type: Evaluation A (Pre-1980)) is on record?
Its mutagenic call is “no conclusion”.

`CN(OC(=O)c1ccccc1)c1ccc(N=Nc2ccccc2)cc1` was tested. Which mutagenic call (Species/Cell Type: Drosophila melanogaster, Assay Type: Sex-linked recessive lethal gene mutation, Assay Code: SRLT, Evaluation Type: Evaluation A (Pre-1980)) did it give?
The mutagenic call was “no conclusion”.

`CCCCOc1ccc(CC(=O)OC)cc1CSC(=N)N` was tested. Which mutagenic call (Species/Cell Type: Saccharomyces cerevisiae, Assay Type: Reverse gene mutation, Assay Code: YERT, Evaluation Type: Evaluation A (Pre-1980)) did it give?
Its mutagenic call is “no conclusion”.

What does the source list for `O=NN1CCCCC1`?
mutagenic call (Species/Cell Type: Drosophila melanogaster, Assay Type: Aneuploidy, partial sex chromosome loss, chromosome aberrations, Assay Code: DAPT, Evaluation Type: Evaluation A (Pre-1980)): no conclusion; mutagenic call (Species/Cell Type: Drosophila melanogaster, Assay Type: Aneuploidy, whole sex chromosome loss, chromosome aberrations, Assay Code: DACT, Evaluation Type: Evaluation A (Pre-1980)): no conclusion; mutagenic call (Species/Cell Type: Drosophila melanogaster, Assay Type: Sex-linked recessive lethal gene mutation, Assay Code: SRL+, Evaluation Type: Evaluation A (Pre-1980)): active; positive; mutagenic call [5]: active; positive; call (Species/Cell Type: Nonhuman, Assay Code: CCG+, Evaluation Type: Evaluation A (Pre-1980)): active; positive; mutagenic call [6]: active; positive; mutagenic call (Species/Cell Type: Saccharomyces cerevisiae, Assay Type: Forward gene mutation, Assay Code: YEF+*, Activation: With metabolic activation, Evaluation Type: Evaluation A (Pre-1980)): active; positive; mutagenic call (Species/Cell Type: Saccharomyces cerevisiae, Assay Type: Reverse gene mutation, Assay Code: YER+*, Activation: With metabolic activation, Evaluation Type: Evaluation A (Pre-1980)): active; positive; mutagenic call [7]: active; positive; mutagenic call [8]: active; positive

With `Nc1ccc(-c2nc(NCCO)c3ccccc3n2)s1` as the compound, how does the mutagenic call [2] read?
Its mutagenic call is “no conclusion”.

For `NC(=O)C#CC(N)=O`, which mutagenic call [3] is on record?
Its mutagenic call is “inactive; negative”.

What does the source list for `Cn1c(=O)c2c(ncn2CC(O)CO)n(C)c1=O` (stereo unspecified)?
mutagenic call (Species/Cell Type: Human lymphocytes, Assay Type: Sister-chromatid exchange (SCE) in vitro, Assay Code: SCLT, Evaluation Type: Evaluation B (Post-1980)): no conclusion; mutagenic call (Species/Cell Type: Human, Assay Type: Sister-chromatid exchange (SCE) in vitro, Assay Code: SC1T, Evaluation Type: Evaluation B (Post-1980)): no conclusion

`COc1ccc2c3c1O[C@H]1[C@@H](O)C=C[C@H]4[C@@H](C2)N(C)CC[C@@]341` was tested. Which mutagenic call [9] did it give?
The mutagenic call was “no conclusion”.

And the mutagenic call [10]?
The mutagenic call was “inactive; negative”.

Which results are given for `CCOP(=S)(OCC)Oc1cc(C)nc(C(C)C)n1`?
mutagenic call (Species/Cell Type: Bacillus subtilis (H17 vs M45), Assay Type: Rec-assay, spot test, DNA effects (bacterial DNA repair), Assay Code: REWT, Evaluation Type: Evaluation A (Pre-1980)): no conclusion; mutagenic call (Species/Cell Type: Escherichia coli WP2 UVRA, Assay Type: Tryptophan reverse gene mutation, Assay Code: WPU-*, Activation: With metabolic activation, Evaluation Type: Evaluation A (Pre-1980)): inactive; negative; mutagenic call [11]: no conclusion; mutagenic call (Species/Cell Type: Human diploid fibroblasts, Assay Type: Unscheduled DNA synthesis (UDS) in vitro, DNA effects, Assay Code: UDH-, Evaluation Type: Evaluation A (Pre-1980)): inactive; negative; mutagenic call [12]: active; positive; call [13]: inactive; negative; mutagenic call [1]: active; positive; mutagenic call [14]: inactive; negative; mutagenic call (Species/Cell Type: Salmonella typhimurium (one or more of the five standard strains: TA98, TA100, TA1535, TA1537, and TA1538), Assay Type: Histidine reverse gene mutation, Ames assay, Assay Code: SAL-, Evaluation Type: Evaluation A (Pre-1980)): inactive; negative

How did the mutagenic call (Species/Cell Type: Salmonella typhimurium, Assay Type: Forward and reverse gene mutation, host-mediated assay, Assay Code: HMA+, Evaluation Type: Evaluation A (Pre-1980)) turn out when `CCN(CC)C(=O)OC1(SC)C(=O)c2ccccc2C1=O` was run?
The mutagenic call was “active; positive”.

With `CCN(CC)CCCC(C)Nc1c2ccc(Cl)cc2nc2ccc(OC)cc12` (stereo unspecified) as the compound, how does the mutagenic call [5] read?
Its mutagenic call is “active; positive”.

What about the mutagenic call (Species/Cell Type: Human lymphocytes, Assay Type: Sister-chromatid exchange (SCE) in vitro, Assay Code: SCL+, Evaluation Type: Evaluation B (Post-1980)) of the same compound?
The mutagenic call was “active; positive”.

And the mutagenic call [12]?
The mutagenic call was “active; positive”.

What about the mutagenic call (Species/Cell Type: Mammalian polychromatic erythrocytes, Assay Type: Micronucleus test, chromosome aberrations, Assay Code: MNT+, Evaluation Type: Evaluation B (Post-1980)) of the same compound?
The mutagenic call was “active; positive”.

And the mutagenic call [9]?
Its mutagenic call is “no conclusion”.

And the mutagenic call [10]?
Its mutagenic call is “inactive; negative”.

With `O=C(O)c1ccc([N+](=O)[O-])o1` as the compound, how does the mutagenic call (Species/Cell Type: Bacillus subtilis (H17 vs M45T), Assay Type: Rec-assay, spot test, DNA effects (bacterial DNA repair), Assay Code: REX-, Evaluation Type: Evaluation A (Pre-1980)) read?
Its mutagenic call is “inactive; negative”.

What about the mutagenic call (Species/Cell Type: Escherichia coli WP2, Assay Type: Tryptophan reverse gene mutation, Assay Code: WP2-, Evaluation Type: Evaluation A (Pre-1980)) of the same compound?
Its mutagenic call is “inactive; negative”.

And the mutagenic call (Species/Cell Type: Escherichia coli WP2 UVRA, Assay Type: Tryptophan reverse gene mutation, Assay Code: WPU-, Evaluation Type: Evaluation A (Pre-1980))?
Its mutagenic call is “inactive; negative”.

What about the mutagenic call [4] of the same compound?
The mutagenic call was “active; positive”.

Which mutagenic call (Species/Cell Type: Escherichia coli polA (W3110 vs P3478), Assay Type: Rec-assay, DNA effects (bacterial DNA repair), Assay Code: RE2-, Evaluation Type: Evaluation A (Pre-1980)) does the source give for `c1ccc2c(c1)ccc1c3ccccc3ccc21` here?
The mutagenic call was “inactive; negative”.

And the mutagenic call [11]?
Its mutagenic call is “no conclusion”.

What about the mutagenic call (Species/Cell Type: Mammalian germ cells, Sex: Male, Assay Type: Chromosome aberrations in vivo, Assay Code: CY9-, Evaluation Type: Evaluation A (Pre-1980)) of the same compound?
Its mutagenic call is “inactive; negative”.

What about the mutagenic call (Species/Cell Type: Mouse prostate cells, Assay Type: Cell transformation, Assay Code: CTM-, Evaluation Type: Evaluation A (Pre-1980)) of the same compound?
The mutagenic call was “inactive; negative”.

What about the call (Species/Cell Type: Nonhuman, Assay Code: CCG+L, Evaluation Type: Evaluation A (Pre-1980)) of the same compound?
The call was “active; positive”.

What about the mutagenic call [6] of the same compound?
The mutagenic call was “active; positive”.

What about the mutagenic call (Species/Cell Type: Nonhuman, Assay Type: Sister-chromatid exchange (SCE) in vivo, Assay Code: SC3T, Evaluation Type: Evaluation A (Pre-1980)) of the same compound?
The mutagenic call was “no conclusion”.

What about the mutagenic call [14] of the same compound?
Its mutagenic call is “inactive; negative”.

And the mutagenic call [7]?
Its mutagenic call is “active; positive”.

And the mutagenic call (Species/Cell Type: Salmonella typhimurium, Assay Type: Forward and reverse gene mutation, host-mediated assay, Assay Code: HMA-, Evaluation Type: Evaluation A (Pre-1980))?
Its mutagenic call is “inactive; negative”.

What about the mutagenic call [8] of the same compound?
The mutagenic call was “active; positive”.

For `CCCCCC(=O)N(C)N=O`, which mutagenic call (Species/Cell Type: Saccharomyces cerevisiae, Assay Type: Mitotic recombination or gene conversion, Assay Code: YEC+, Evaluation Type: Evaluation A (Pre-1980)) is on record?
Its mutagenic call is “active; positive”.

`CNC(=O)ON=CC(C)(C)SC` was tested. Which mutagenic call (Species/Cell Type: Human lymphocytes, Assay Type: Sister-chromatid exchange (SCE) in vitro, Assay Code: SCL+D, Dose Response: With dose response, Evaluation Type: Evaluation B (Post-1980)) did it give?
Its mutagenic call is “active; positive”.

What about the mutagenic call (Species/Cell Type: Human, Assay Type: Sister-chromatid exchange (SCE) in vitro, Assay Code: SC1+D, Dose Response: With dose response, Evaluation Type: Evaluation B (Post-1980)) of the same compound?
Its mutagenic call is “active; positive”.

And the call [13]?
Its call is “inactive; negative”.
